Experimental data from ChEMBL document CHEMBL5620427, “Recent advances in Fragment-based strategies against tuberculosis” (Eur J Med Chem, 2023).

System: Mycobacterium tuberculosis variant bovis
Assay: Antibacterial activity against Mycobacterium bovis BCG ATCC 35734 assessed as bacterial growth inhibition measured after 3 weeks by resazurin dye based assay
Assay type: functional
Conditions: BCG ATCC 35734, 504 h

## NS(=O)(=O)c1cc(Cl)cc(Cl)c1
  MIC99: < 56 µM

## CCOC(=O)c1cc(Cl)c(O)c(Cl)c1
  MIC99: < 53 µM
